From ChEMBL document CHEMBL1201862, “PubChem BioAssay data set” (2004)
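Method: 48-hour compound exposure of cells in 96-well plates, five concentrations, linear interpolation of endpoints. The concentration for 50% growth inhibition is given as GI50.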 Activity calls are given as the source filed them. Cut-off read from the data, not from the text of the source: active = GI50 up to about 1.1 µM and inactive = higher.

Tests used:
Experiment in all cases: NCI anticancer screen, dose series, 48 h
[1] = tested on: EKVX
[2] = tested on: HCT-116
[3] = tested on: IGROV-1
[4] = tested on: OVCAR-5
[5] = tested on: SW-620
[6] = tested on: ACHN
[7] = tested on: UO-31
[8] = tested on: K562
[9] = tested on: UACC-257
[10] = tested on: RXF 393
[11] = tested on: NCI-H522
[12] = tested on: MCF7
[13] = tested on: PC-3
[14] = tested on: SR
[15] = tested on: HT-29
[16] = tested on: M14
[17] = tested on: KM12
[18] = tested on: TK-10
[19] = tested on: HL-60
[20] = tested on: COLO 205
[21] = tested on: A549
[22] = tested on: MDA-N
[23] = tested on: LOX IMVI
[24] = tested on: NCI-H460
[25] = tested on: SK-MEL-2
[26] = tested on: CCRF-CEM
[27] = tested on: MOLT-4
[28] = tested on: SK-MEL-5
[29] = tested on: OVCAR-8
[30] = tested on: 786-0
[31] = tested on: SF-295
[32] = tested on: NCI/ADR-RES
[33] = tested on: T47D
[34] = tested on: HOP-62
[35] = tested on: U-251
[36] = tested on: MDA-MB-231
[37] = tested on: SF-539
[38] = tested on: RPMI-8226
[39] = tested on: DU-145
[40] = tested on: SK-OV-3
[41] = tested on: NCI-H23
[42] = tested on: MDA-MB-435
[43] = tested on: OVCAR-4
[44] = tested on: SF-268
[45] = tested on: UACC-62
[46] = tested on: HCC 2998
[47] = tested on: NCI-H226
[48] = tested on: SNB-75
[49] = tested on: HCT-15
[50] = tested on: Hs-578T
[51] = tested on: SK-MEL-28
[52] = tested on: OVCAR-3
[53] = tested on: CAKI-1
[54] = tested on: SN12C
[55] = tested on: A498
[56] = tested on: HOP-92
[57] = tested on: SNB-19
[58] = tested on: BT-549

Compound: O=C(/C=C/c1ccccc1)N1CCCCC1
- GI50 [1]: > 100 µM (inactive)
- GI50 [2]: > 100 µM (inactive)
- GI50 [3]: > 100 µM (inactive)
- GI50 [4]: > 100 µM (inactive)
- GI50 [5]: > 100 µM (inactive)
- GI50 [6]: > 100 µM (inactive)
- GI50 [7]: > 100 µM (inactive)
- GI50 [8]: > 100 µM (inactive)
- GI50 [9]: > 100 µM (inactive)
- GI50 [10]: > 100 µM (inactive)
- GI50 [11]: > 100 µM (inactive)
- GI50 [12]: > 100 µM (inactive)
- GI50 [13]: > 100 µM (inactive)
- GI50 [14]: > 100 µM (inactive)
- GI50 [15]: > 100 µM (inactive)
- GI50 [16]: > 100 µM (inactive)
- GI50 [17]: > 100 µM (inactive)
- GI50 [18]: > 100 µM (inactive)
- GI50 [19]: > 100 µM (inactive)
- GI50 [20]: > 100 µM (inactive)
- GI50 [21]: > 100 µM (inactive)
- GI50 [22]: > 100 µM (inactive)
- GI50 [23]: > 100 µM (inactive)
- GI50 [24]: > 100 µM (inactive)
- GI50 [25]: > 100 µM (inactive)
- GI50 [26]: > 100 µM (inactive)
- GI50 [27]: > 100 µM (inactive)
- GI50 [28]: > 100 µM (inactive)
- GI50 [29]: > 100 µM (inactive)
- GI50 [30]: > 100 µM (inactive)
- GI50 [31]: > 100 µM (inactive)
- GI50 [32]: > 100 µM (inactive)
- GI50 [33]: > 100 µM (inactive)
- GI50 [34]: > 100 µM (inactive)
- GI50 [35]: > 100 µM (inactive)
- GI50 [36]: > 100 µM (inactive)
- GI50 [37]: > 100 µM (inactive)
- GI50 [38]: > 100 µM (inactive)
- GI50 [39]: > 100 µM (inactive)
- GI50 [40]: > 100 µM (inactive)
- GI50 [41]: > 100 µM (inactive)
- GI50 [42]: > 100 µM (inactive)
- GI50 [43]: > 100 µM (inactive)
- GI50 [44]: > 100 µM (inactive)
- GI50 [45]: > 100 µM (inactive)
- GI50 [46]: > 100 µM (inactive)
- GI50 [47]: > 100 µM (inactive)
- GI50 [48]: 15.2 µM (inactive)
- GI50 [49]: > 100 µM
- GI50 [50]: > 100 µM (inactive)
- GI50 [51]: > 100 µM (inactive)
- GI50 [52]: > 100 µM (inactive)
- GI50 [53]: > 100 µM (inactive)
- GI50 [54]: > 100 µM (inactive)
- GI50 [55]: > 100 µM (inactive)
- GI50 [56]: > 100 µM (inactive)
- GI50 [57]: > 100 µM (inactive)
- GI50 [58]: > 100 µM (inactive)

Compound: COC(=O)c1ccccc1/N=C(/NC1CCCCCC1)NS(=O)(=O)c1ccc(C)cc1
- GI50 [1]: > 100 µM (inactive)
- GI50 [2]: > 100 µM (inactive)
- GI50 [3]: > 100 µM (inactive)
- GI50 [4]: > 100 µM (inactive)
- GI50 [5]: > 100 µM (inactive)
- GI50 [6]: > 100 µM (inactive)
- GI50 [7]: > 100 µM (inactive)
- GI50 [8]: > 100 µM (inactive)
- GI50 [9]: > 100 µM (inactive)
- GI50 [10]: > 100 µM (inactive)
- GI50 [11]: 77.4 µM (inactive)
- GI50 [12]: 99.1 µM (inactive)
- GI50 [13]: > 100 µM (inactive)
- GI50 [14]: > 100 µM (inactive)
- GI50 [15]: > 100 µM (inactive)
- GI50 [16]: > 100 µM (inactive)
- GI50 [17]: > 100 µM (inactive)
- GI50 [18]: > 100 µM (inactive)
- GI50 [19]: 96.2 µM (inactive)
- GI50 [20]: > 100 µM (inactive)
- GI50 [21]: > 100 µM (inactive)
- GI50 [22]: > 100 µM (inactive)
- GI50 [23]: > 100 µM (inactive)
- GI50 [24]: > 100 µM (inactive)
- GI50 [25]: > 100 µM (inactive)
- GI50 [26]: > 100 µM (inactive)
- GI50 [27]: > 100 µM (inactive)
- GI50 [28]: > 100 µM (inactive)
- GI50 [29]: > 100 µM (inactive)
- GI50 [30]: > 100 µM (inactive)
- GI50 [31]: 26.4 µM (inactive)
- GI50 [32]: > 100 µM (inactive)
- GI50 [33]: > 100 µM (inactive)
- GI50 [34]: 99.3 µM (inactive)
- GI50 [35]: > 100 µM (inactive)
- GI50 [36]: 76.9 µM (inactive)
- GI50 [37]: > 100 µM (inactive)
- GI50 [38]: > 100 µM (inactive)
- GI50 [39]: 58.6 µM (inactive)
- GI50 [40]: > 100 µM (inactive)
- GI50 [41]: > 100 µM (inactive)
- GI50 [42]: > 100 µM (inactive)
- GI50 [43]: > 100 µM (inactive)
- GI50 [44]: > 100 µM (inactive)
- GI50 [45]: > 100 µM (inactive)
- GI50 [46]: > 100 µM (inactive)
- GI50 [47]: > 100 µM (inactive)
- GI50 [48]: > 100 µM (inactive)
- GI50 [49]: > 100 µM
- GI50 [50]: > 100 µM (inactive)
- GI50 [51]: > 100 µM (inactive)
- GI50 [52]: > 100 µM (inactive)
- GI50 [53]: 74.5 µM (inactive)
- GI50 [54]: > 100 µM (inactive)
- GI50 [55]: > 100 µM (inactive)
- GI50 [56]: 89.7 µM (inactive)
- GI50 [57]: > 100 µM (inactive)
- GI50 [58]: > 100 µM (inactive)

Compound: CCc1nc(N)nc(N)c1-c1ccc([N+](=O)[O-])c(NCc2ccccc2)c1
- GI50 [1]: 11.2 µM (inactive)
- GI50 [2]: 7.36 µM (inactive)
- GI50 [3]: 10.9 µM (inactive)
- GI50 [4]: 22.4 µM (inactive)
- GI50 [5]: 12.6 µM (inactive)
- GI50 [6]: 15.3 µM (inactive)
- GI50 [7]: 6.18 µM (inactive)
- GI50 [8]: 5.2 µM (inactive)
- GI50 [9]: 12.8 µM (inactive)
- GI50 [10]: 14.4 µM (inactive)
- GI50 [11]: 15.9 µM (inactive)
- GI50 [12]: 13.6 µM (inactive)
- GI50 [13]: 12.8 µM (inactive)
- GI50 [14]: 10.3 µM (inactive)
- GI50 [15]: 7.91 µM (inactive)
- GI50 [16]: 12.4 µM (inactive)
- GI50 [17]: 17.3 µM (inactive)
- GI50 [18]: 20.2 µM (inactive)
- GI50 [19]: 5.82 µM (inactive)
- GI50 [20]: 14.7 µM (inactive)
- GI50 [21]: 6.17 µM (inactive)
- GI50 [22]: 16 µM (inactive)
- GI50 [23]: 14.5 µM (inactive)
- GI50 [24]: 6.17 µM (inactive)
- GI50 [25]: 21.6 µM (inactive)
- GI50 [26]: 8.85 µM (inactive)
- GI50 [27]: 7.5 µM (inactive)
- GI50 [28]: 6.05 µM (inactive)
- GI50 [29]: 16.5 µM (inactive)
- GI50 [30]: 13.9 µM (inactive)
- GI50 [31]: 10.4 µM (inactive)
- GI50 [32]: 10.7 µM (inactive)
- GI50 [33]: 6.47 µM (inactive)
- GI50 [34]: 12.4 µM (inactive)
- GI50 [35]: 12.8 µM (inactive)
- GI50 [36]: 14.8 µM (inactive)
- GI50 [37]: 16.3 µM (inactive)
- GI50 [38]: 11.6 µM (inactive)
- GI50 [39]: 14.9 µM (inactive)
- GI50 [40]: 20.4 µM (inactive)
- GI50 [41]: 14.5 µM (inactive)
- GI50 [42]: 14.6 µM (inactive)
- GI50 [43]: 15.2 µM (inactive)
- GI50 [44]: 14.9 µM (inactive)
- GI50 [45]: 15.7 µM (inactive)
- GI50 [46]: 15.2 µM (inactive)
- GI50 [47]: 18.7 µM (inactive)
- GI50 [48]: 10.1 µM (inactive)
- GI50 [49]: 12.3 µM
- GI50 [50]: 13.8 µM (inactive)
- GI50 [51]: 16.4 µM (inactive)
- GI50 [52]: 13.2 µM (inactive)
- GI50 [53]: 13.7 µM (inactive)
- GI50 [54]: 20 µM (inactive)
- GI50 [55]: 15.5 µM (inactive)
- GI50 [56]: 10.6 µM (inactive)
- GI50 [57]: 16.4 µM (inactive)
- GI50 [58]: 16.9 µM (inactive)
